# Source: ChEMBL document CHEMBL1157764, “Conserved high activity binding peptides are involved in adhesion of two detergent-resistant membrane-associated merozoite proteins to red blood cells during invasion” (J Med Chem, 2010)
# Where a SMILES comes first, the peptide text is derived from it. [ ]: non-standard residue; d: D form. Ahp(2) = CCCCC[C@H](N)C(=O)O
# Species on record: Homo sapiens
# Assay: Binding affinity to RBC membrane receptor in human RBCs assessed as specific binding activity measured as ratio of specifically bound peptide/added peptide by gamma counter
row,Molecule,Activity
1,CC[C@H](C)[C@H](N)C(=O)N[C@@H](CCCCN)C(=O)N[C@@H](Cc1ccc(O)cc1)C(=O)N[C@H](C(=O)N[C@@H](CCC(=O)O)C(=O)N[C@@H](Cc1ccccc1)C(=O)N[C@@H](Cc1ccccc1)C(=O)N[C@@H](CCC(=O)O)C(=O)N[C@@H](CO)C(=O)N[C@@H](CC(N)=O)C(=O)N[C@@H](Cc1ccc(O)cc1)C(=O)N[C@@H](CC(N)=O)C(=O)N[C@@H](CCCNC(=N)N)C(=O)N[C@@H](CC(C)C)C(=O)N[C@@H](CCCCN)C(=O)N[C@@H](CCCNC(=N)N)C(=O)N[C@@H](CO)C(=O)N[C@@H](Cc1ccccc1)C(=O)N[C@@H](CCC(N)=O)C(=O)N[C@@H](CCCCN)C(=O)O)[C@@H](C)O,< 2%
2,CC[C@H](C)[C@H](NC(=O)[C@@H](N)CCC(=O)O)C(=O)N[C@@H](CO)C(=O)N[C@@H](CCC(=O)O)C(=O)N[C@@H](CS)C(=O)N[C@H](C(=O)N[C@@H](CCC(=O)O)C(=O)N[C@@H](CO)C(=O)N[C@@H](CCC(=O)O)C(=O)N[C@@H](CCC(N)=O)C(=O)N[C@@H](CC(N)=O)C(=O)N[C@@H](CCC(=O)O)C(=O)N[C@H](C(=O)N[C@@H](CCCCN)C(=O)N[C@H](C(=O)N[C@@H](CO)C(=O)N[C@H](C(=O)N[C@H](C(=O)N[C@@H](CS)C(=O)N[C@@H](CC(C)C)C(=O)N[C@@H](Cc1ccc(O)cc1)C(=O)O)[C@@H](C)O)[C@@H](C)O)[C@@H](C)O)C(C)C)C(C)C (H-EISECVESEQNEVKTSTTCLY-OH),> 2%
3,CC[C@H](C)[C@H](N)C(=O)N[C@@H](Cc1cnc[nH]1)C(=O)N[C@@H](CCCCN)C(=O)N[C@@H](CCCNC(=N)N)C(=O)N[C@@H](CS)C(=O)N[C@@H](CC(N)=O)C(=O)N[C@@H](CC(=O)O)C(=O)N[C@@H](CC(=O)O)C(=O)N[C@H](C(=O)N[C@@H](CCC(=O)O)C(=O)N[C@@H](CCCCN)C(=O)N[C@@H](CCCCN)C(=O)N[C@@H](CS)C(=O)N[C@@H](CC(N)=O)C(=O)NCC(=O)N[C@@H](CC(N)=O)C(=O)N[C@@H](CC(N)=O)C(=O)N[C@@H](CCCCN)C(=O)N[C@@H](CS)C(=O)N[C@H](C(=O)N[C@@H](Cc1ccc(O)cc1)C(=O)O)[C@@H](C)CC)[C@@H](C)CC (H-IHKRCNDDIEKKCNGNNKCIY-OH),> 2%
4,CC[C@H](C)[C@H](NC(=O)[C@H](CCC(=O)O)NC(=O)[C@H](CC(N)=O)NC(=O)[C@H](CC(N)=O)NC(=O)CNC(=O)[C@H](CC(N)=O)NC(=O)[C@H](CC(C)C)NC(=O)[C@H](CS)NC(=O)[C@H](CCC(N)=O)NC(=O)[C@@H](NC(=O)[C@H](CCC(=O)O)NC(=O)[C@H](CS)NC(=O)[C@H](Cc1cnc[nH]1)NC(=O)[C@H](CC(C)C)NC(=O)[C@@H](NC(=O)[C@H](Cc1ccc(O)cc1)NC(=O)[C@H](CC(C)C)NC(=O)[C@H](CC(N)=O)NC(=O)CNC(=O)[C@@H](N)CCC(N)=O)C(C)C)C(C)C)C(=O)O (H-QGNLYVLHCEVQCLNGNNEI-OH),> 2%
5,CCCCC[C@H](NC(=O)[C@H](Cc1ccc(O)cc1)NC(=O)[C@@H](NC(=O)[C@H](CCCNC(=N)N)NC(=O)[C@H](CCCNC(=N)N)NC(=O)[C@H](CCC(N)=O)NC(=O)[C@@H]1CCCN1C(=O)[C@@H](NC(=O)[C@@H](NC(=O)[C@H](Cc1ccccc1)NC(=O)[C@@H](NC(=O)[C@H](CC(=O)O)NC(=O)[C@H](CC(N)=O)NC(=O)[C@H](CCC(=O)O)NC(=O)CNC(=O)[C@H](Cc1ccccc1)NC(=O)[C@H](CC(C)C)NC(=O)[C@@H](N)Cc1ccc(O)cc1)[C@@H](C)CC)C(C)C)C(C)C)[C@@H](C)CC)C(=O)N[C@H](C(=O)N[C@@H](CCC(=O)O)C(=O)O)[C@@H](C)O (H-YLFGENDIFVVPQRRIY[Ahp(2)]TE-OH),> 2%
6,H-EEIGDESTDSSSMEIQDSTSY-OH,> 2%
7,H-EKKDVKVSGNNNIAVVYSIF-OH,> 2%
8,H-FEVRLPKDIKVTENCFRYSF-OH,> 2%
9,H-GTAMESLLYLNNNNVKKLID-OH,> 2%
10,H-ILYLEKNNLFNTQASCIKSY-OH,> 2%
11,H-ISLLLNKKYDSFEIKDVLED-OH,> 2%
12,H-ITIEELFKSAIKTEEMKDNKY-OH,< 2%
13,H-KYILVCENHSQNYINVVDQE-OH,> 2%
14,H-LFETFDPQYLNTEFNGVSHY-OH,> 2%
15,H-LGYDNCTIEVNKTVNGIDWN-OH,> 2%
16,H-LNEDLVLLYNDFPFDNGMIS-OH,> 2%
17,H-MFAVNLKICIFLSLVSFLLQY-OH,> 2%
18,H-NDSNDFLKKYAIMGNSFDDG-OH,> 2%

# The remaining lines, values ahead:
row,Activity,Molecule
1,< 2%,CC[C@H](C)[C@H](NC(=O)[C@H](CC(=O)O)NC(=O)[C@H](CC(N)=O)NC(=O)[C@H](CC(N)=O)NC(=O)[C@@H](N)CCC(N)=O)C(=O)N[C@@H](CC(=O)O)C(=O)N[C@@H](Cc1cnc[nH]1)C(=O)N[C@@H](CO)C(=O)N[C@@H](CCC(=O)O)C(=O)N[C@@H](CC(=O)O)C(=O)N[C@@H](CCCCN)C(=O)N[C@@H](CCCCN)C(=O)N[C@@H](CC(C)C)C(=O)N[C@H](C(=O)N[C@@H](CO)C(=O)N[C@@H](CCCNC(=N)N)C(=O)N[C@H](C(=O)N[C@@H](CC(C)C)C(=O)N[C@@H](Cc1ccc(O)cc1)C(=O)N[C@@H](Cc1ccc(O)cc1)C(=O)O)C(C)C)[C@@H](C)CC
2,> 2%,CC[C@H](C)[C@H](NC(=O)[C@H](CO)NC(=O)[C@H](CCCCN)NC(=O)[C@@H](N)CC(=O)O)C(=O)N[C@H](C(=O)N[C@@H](Cc1cnc[nH]1)C(=O)N[C@@H](Cc1ccccc1)C(=O)N[C@@H](Cc1ccc(O)cc1)C(=O)N[C@@H](CS)C(=O)N[C@@H](CCC(=O)O)C(=O)N[C@@H](CS)C(=O)N[C@@H](CC(N)=O)C(=O)N[C@H](C(=O)N[C@@H](CC(N)=O)C(=O)N[C@@H](CC(N)=O)C(=O)N[C@@H](CC(N)=O)C(=O)N[C@H](C(=O)N[C@H](C(=O)N[C@@H](CCCCN)C(=O)N[C@H](C(=O)O)C(C)C)[C@@H](C)CC)C(C)C)C(C)C)[C@@H](C)CC (H-DKSIIHFYCECNVNNNVIKV-OH)
3,> 2%,CC[C@H](C)[C@H](NC(=O)[C@H](Cc1ccc(O)cc1)NC(=O)[C@H](CS)NC(=O)[C@@H]1CCCN1C(=O)[C@H](CC(=O)O)NC(=O)[C@@H](N)CCC(=O)O)C(=O)N[C@@H](CC(N)=O)C(=O)N[C@@H](CC(N)=O)C(=O)N[C@@H](CO)C(=O)N[C@@H](Cc1ccc(O)cc1)C(=O)N[C@H](C(=O)N[C@@H](CO)C(=O)N[C@H](C(=O)N[C@@H](CC(N)=O)C(=O)N[C@H](C(=O)N[C@H](C(=O)N[C@@H](CS)C(=O)N[C@@H](CC(N)=O)C(=O)N[C@@H](CCCCN)C(=O)N[C@@H](CCC(=O)O)C(=O)O)C(C)C)C(C)C)C(C)C)C(C)C (H-EDPCYINNSYVSVNVVCNKE-OH)
4,> 2%,CC[C@H](C)[C@H](NC(=O)[C@H](Cc1ccc(O)cc1)NC(=O)[C@H](CCC(=O)O)NC(=O)[C@H](CO)NC(=O)[C@@H](NC(=O)[C@H](CC(=O)O)NC(=O)[C@H](CCCCN)NC(=O)[C@H](CC(C)C)NC(=O)[C@H](CCCCN)NC(=O)[C@@H](NC(=O)[C@H](CCC(=O)O)NC(=O)[C@H](CS)NC(=O)[C@H](Cc1ccccc1)NC(=O)[C@@H]1CCCN1C(=O)[C@H](CO)NC(=O)[C@@H](N)Cc1cnc[nH]1)[C@@H](C)CC)[C@@H](C)CC)C(=O)N[C@@H](CCCNC(=N)N)C(=O)N[C@@H](CCCCN)C(=O)N[C@@H](CCCCN)C(=O)N[C@@H](CS)C(=O)O (H-HSPFCEIKLKDISEYIRKKC-OH)
5,> 2%,H-DEKHAENEENVEQIETDSNVY-OH
6,> 2%,H-DEVFGSQSSNFNIFDSNNTDY-OH
7,> 2%,H-DGLNCFDNVYIKNKTLVKIE-OH
8,> 2%,H-EDGEKENKHKSSETTNETVTY-OH
9,> 2%,H-EEQENEDSTDAEAIDKEEVEY-OH
10,> 2%,H-KETQEKSDQEPSQNIQEDNSY-OH
11,> 2%,H-MAVYNALYEKAQSYNLQKLF-OH
